Article PMC10294832, “Investigation of Naphthyl–Polyamine Conjugates as Antimicrobials and Antibiotic Enhancers” (Antibiotics, 2023)
pIC50: −log10 of the molar value. Where “and” joins values, the source holds several entries; their conditions need not be identical. Equal values may be shown once. Read-outs that look alike come from different tables or passages of the source.

How the values were obtained:
[1] = system: S. aureus (ATCC 25,923 or ATCC 29213); experiment: Antimicrobial MIC, S. aureus; type: cell-based, Staphylococcus aureus; conditions: mean (n = 3)
Experimental: (§1) The susceptibility of bacterial strains S. aureus (ATCC 25,923 or 29213), E. coli (ATCC 25922), and P. aeruginosa (ATCC 27853) to antibiotics and compounds was determined according to previously reported protocols. Additional antimicrobial evaluation against MRSA (ATCC 43300), Klebsiella pneumoniae (ATCC 700603), Acinetobacter baumannii (ATCC 19606), Candida albicans (ATCC 90028), and Cryptococcus neoformans (ATCC 208821) was undertaken at the Community for Open Antimicrobial Drug Discovery at The University of Queensland (Australia) according to their standard protocols as reported previously.

human red blood cells = experiment: Hemolytic assay; type: cell-based; conditions: concentration at 10% hemolytic activity on human red blood cells; mean (n = 2)
Experimental: Hemolysis assays were conducted using the protocols previously reported.

E. coli (ATCC 25922) [2] = experiment: Antimicrobial MIC, E. coli; type: cell-based, Escherichia coli; conditions: mean (n = 2)
Experimental: as §1

E. coli (ATCC 25922) [3] = experiment: Enhancement of erythromycin activity; type: cell-based, Escherichia coli; conditions: for Eryth/E.c: concentration required to restore erythromycin activity (combination MIC): erythromycin fixed at 10.9 µM (8 µg/mL), E. coli (ATCC 25922); for Eryth/E.c fold change: ratio between intrinsic MIC of test compound and combination MIC, erythromycin 10.9 µM, E. coli
Experimental: Restoring enhancer concentrations were determined using previously reported protocols.

[4] = system: K. pneumoniae (ATCC 700603); experiment: Antimicrobial MIC, K. pneumoniae; type: cell-based; conditions: Klebsiella pneumoniae, ATCC700603, mean (n = 2)
Experimental: as §1

[5] = system: C. neoformans (ATCC 208821); experiment: Antifungal MIC, C. neoformans; type: cell-based, Cryptococcus neoformans; conditions: mean (n = 2)
Experimental: as §1

[6] = system: P. aeruginosa (PAO1 or ATCC 27853); experiment: Antimicrobial MIC, P. aeruginosa; type: cell-based; conditions: Pseudomonas aeruginosa; P. aeruginosa (PAO1 or ATCC 27853); mean (n = 3); read-out: MIC P. a
Experimental: as §1

MRSA (ATCC 43300) = experiment: Antimicrobial MIC, MRSA; type: cell-based, methicillin-resistant Staphylococcus aureus; conditions: MRSA (ATCC 43300), mean (n = 2), read-out: MIC MRSA
Experimental: as §1

Cytotoxicity assay = type: cell-based, human; conditions: human, HEK293 human embryonic kidney cells, concentration at 50% cytotoxicity on HEK293 cells; mean (n = 2)
Experimental: Cytotoxicity assays were conducted using the protocols previously reported.

[7] = system: P. aeruginosa (ATCC 27853); experiment: Enhancement of doxycycline activity; type: cell-based, Pseudomonas aeruginosa; conditions: for Dox/P.a: concentration required to restore doxycycline activity (combination MIC): doxycycline fixed at 4.5 µM (2 µg/mL), P. aeruginosa (ATCC 27853); for Dox/P.a fold change: ratio between intrinsic MIC of test compound and combination MIC, doxycycline 4.5 µM, P. aeruginosa
[8] = system: A. baumannii (ATCC 19606); experiment: Antimicrobial MIC, A. baumannii; type: cell-based, Acinetobacter baumannii; conditions: mean (n = 2)
Experimental: as §1

C. albicans (ATCC 90028) = experiment: Antifungal MIC, C. albicans; type: cell-based; conditions: Candida albicans, ATCC90028, mean (n = 2)
Experimental: as §1

[9] = Escherichia coli, ATCC25922, E. coli (ATCC 25922)
[10] = Cryptococcus neoformans, ATCC208821, C. neoformans (ATCC 208821)
[11] = Acinetobacter baumannii, ATCC19606, A. baumannii (ATCC 19606)

| MIC ([1]; Staphylococcus aureus) [µM] | MIC (E. coli (ATCC 25922) [2]; [9]) [µM] | Eryth/E.c: concentration required to restore erythromycin activity (combination MIC) (E. coli (ATCC 25922) [3]) | MIC [4] [µM] | MIC [5, 10] [µM] | MIC [6] [µM] | MIC (MRSA (ATCC 43300); Staphylococcus aureus) [µM] | Dox/P.a: concentration required to restore doxycycline activity (combination MIC) [7] | MIC [8, 11] [µM] | MIC (C. albicans (ATCC 90028)) [µM] | MIC [1] [µM] | MIC (E. coli (ATCC 25922) [2]; E. coli (ATCC 25922)) [µM] | MIC (MRSA (ATCC 43300)) [µM] | MIC ([5]; C. neoformans (ATCC 208821)) [µM] | MIC ([8]; A. baumannii (ATCC 19606)) [µM] | SMILES | Hemolysis HC10 (human red blood cells) [µM] | Eryth/E.c fold change (E. coli (ATCC 25922) [3]) [fold] | pIC50 (Cytotoxicity assay) | Dox/P.a fold change [7] [fold] |
| --- | --- | --- | --- | --- | --- | --- | --- | --- | --- | --- | --- | --- | --- | --- | --- | --- | --- | --- | --- |
| 16 | 16 | 4.0 µM | > 41 | ≤ 0.32 | 32 | ≤ 0.32 | 4.0 µM and 4.00 µM | > 41 | > 41 | – | – | – | – | – | O=C(NCCCNCCCCCCCNCCCNC(=O)c1ccc2ccccc2c1)c1ccc2ccccc2c1.O=C(O)C(F)(F)F.O=C(O)C(F)(F)F [Compound 19c, N^1,N^7-Bis(3-(2-naphthamido)propyl)heptane-1,7-diaminium 2,2,2-trifluoroacetate] | >41.0 | 4 | 4.69 | 8 |
| 7.9 | 126 | 15.7 µM | > 40.3 | 40.3 | 126 | 40.3 | 15.7 µM | > 40.3 | > 40.3 | – | – | – | – | – | O=C(NCCCNCCCCCCCCNCCCNC(=O)c1ccc2ccccc2c1)c1ccc2ccccc2c1.O=C(O)C(F)(F)F.O=C(O)C(F)(F)F [Compound 19d, N^1,N^8-Bis(3-(2-naphthamido)propyl)octane-1,8-diaminium 2,2,2-trifluoroacetate] | >40.3 | 8 | < 4.39 | 8 |
| 65.2 | 130 | 65.2 µM | > 41.7 | 20.9 | > 130 | 41.7 | 65.2 µM | > 41.7 | > 41.7 | – | – | – | – | – | O=C(NCCCNCCCCCCNCCCNC(=O)c1ccc2ccccc2c1)c1ccc2ccccc2c1.O=C(O)C(F)(F)F.O=C(O)C(F)(F)F [Compound 19b, N^1,N^6-Bis(3-(2-naphthamido)propyl)hexane-1,6-diaminium 2,2,2-trifluoroacetate] | >41.7 | 2 | < 4.38 | > 2 |
| 30 | 122 | 60.8 µM | 38.9 | 4.86 | 608 | 1.22 | 608 µM | 38.9 | 38.9 | – | – | – | – | – | O=C(NCCCNCCCCCCCCCCNCCCNC(=O)c1ccc2ccccc2c1)c1ccc2ccccc2c1.O=C(O)C(F)(F)F.O=C(O)C(F)(F)F [Compound 19e, N^1,N^10-Bis(3-(2-naphthamido)propyl)decane-1,10-diaminium 2,2,2-trifluoroacetate] | >38.9 | 2 | 5.32 | 1 |
| 12.9 | 104 | 13 µM and 13.0 µM | > 33.2 | 16.6 | 518 | 16.6 | 104 µM | > 33.2 | > 33.2 | – | – | – | – | – | O=C(CCC(=O)Nc1ccc2ccccc2c1)NCCCNCCCCCCCCCCNCCCNC(=O)CCC(=O)Nc1ccc2ccccc2c1.O=C(O)C(F)(F)F.O=C(O)C(F)(F)F [Compound 20e, N^1,N^10-Bis(3-(4-(naphthalen-2-ylamino)-4-oxobutanamido)propyl)decane-1,10-diaminium 2,2,2-trifluoroacetate] | >33.2 | 8 | < 4.48 | 5 |
| 100 | 300 | 300 µM | > 37.6 | 0.29 | 300 | 0.29 | 300 µM | 0.29 | > 37.6 | – | – | 0.294 | 0.294 | 0.294 | O=C(NCCCNCCCCCCCCCCCCNCCCNC(=O)c1ccc2ccccc2c1)c1ccc2ccccc2c1.O=C(O)C(F)(F)F.O=C(O)C(F)(F)F [Compound 19f, N^1,N^12-Bis(3-(2-naphthamido)propyl)dodecane-1,12-diaminium 2,2,2-trifluoroacetate] | >37.6 | 1 | < 4.42 | 1 |
| 13.3 | 107 | 26.7 µM | > 34.2 | 17.1 | > 107 | > 34.2 | 53.4 µM | > 34.2 | > 34.2 | – | – | – | – | – | O=C(CCC(=O)Nc1ccc2ccccc2c1)NCCCNCCCCCCCCNCCCNC(=O)CCC(=O)Nc1ccc2ccccc2c1.O=C(O)C(F)(F)F.O=C(O)C(F)(F)F [Compound 20d, N^1,N^8-Bis(3-(4-(naphthalen-2-ylamino)-4-oxobutanamido)propyl)octane-1,8-diaminium 2,2,2-trifluoroacetate] | >34.2 | 4 | < 4.47 | > 2 |

Second part, the compound before the results:

| SMILES | MIC ([1]; Staphylococcus aureus) [µM] | MIC (E. coli (ATCC 25922) [2]; [9]) [µM] | Eryth/E.c: concentration required to restore erythromycin activity (combination MIC) (E. coli (ATCC 25922) [3]) | MIC [4] [µM] | MIC [5, 10] [µM] | MIC [6] [µM] | MIC (MRSA (ATCC 43300); Staphylococcus aureus) [µM] | Dox/P.a: concentration required to restore doxycycline activity (combination MIC) [7] | MIC [8, 11] [µM] | MIC (C. albicans (ATCC 90028)) [µM] | MIC [1] [µM] | MIC (E. coli (ATCC 25922) [2]; E. coli (ATCC 25922)) [µM] | MIC (MRSA (ATCC 43300)) [µM] | MIC ([5]; C. neoformans (ATCC 208821)) [µM] | MIC ([8]; A. baumannii (ATCC 19606)) [µM] | Hemolysis HC10 (human red blood cells) [µM] | Eryth/E.c fold change (E. coli (ATCC 25922) [3]) [fold] | pIC50 (Cytotoxicity assay) | Dox/P.a fold change [7] [fold] |
| --- | --- | --- | --- | --- | --- | --- | --- | --- | --- | --- | --- | --- | --- | --- | --- | --- | --- | --- | --- |
| O=C(CCC(=O)Nc1cccc2ccccc12)NCCCNCCCCCCCCCCNCCCNC(=O)CCC(=O)Nc1cccc2ccccc12.O=C(O)C(F)(F)F.O=C(O)C(F)(F)F [Compound 18e, N^1,N^10-Bis(3-(4-(naphthalen-1-ylamino)-4-oxobutanamido)propyl)decane-1,10-diaminium 2,2,2-trifluoroacetate] | 104 | 518 | 51.8 µM | > 33.2 | 33.2 | 518 | 33.2 | 207 µM | > 33.2 | > 33.2 | – | – | – | – | – | >33.2 | 10 | < 4.48 | 2.5 |
| O=C(CCC(=O)Nc1cccc2ccccc12)NCCCNCCCCCCCCCCCCNCCCNC(=O)CCC(=O)Nc1cccc2ccccc12.O=C(O)C(F)(F)F.O=C(O)C(F)(F)F [Compound 18f, N^1,N^12-Bis(3-(4-(Naphthalen-1-ylamino)-4-oxobutanamido)propyl)dodecane-1,12-diaminium 2,2,2-trifluoroacetate] | 3.12 | 6.3 to 12.5 | 6.29 µM | > 32 | ≤ 0.25 | > 100 | ≤ 0.25 | 50.3 µM | > 32 | > 32 | 3.15 | 12.5 | – | – | – | >32.2 | 2 | < 4.49 | > 2 |
| O=C(NCCCNCCCCCCCCCCNCCCNC(=O)c1cccc2ccccc12)c1cccc2ccccc12.O=C(O)C(F)(F)F.O=C(O)C(F)(F)F [Compound 17e, N^1,N^10-Bis(3-(1-naphthamido)propyl)decane-1,10-diaminium 2,2,2-trifluoroacetate] | 244 | 608 | 122 µM | > 38.9 | 38.9 | 608 | 9.7 | 608 µM | > 38.9 | > 38.9 | – | – | 9.72 | – | – | >38.9 | 5 | 4.63 | 1 |
